The subject of assay [1] is phosphorylated AKT Ser473 (pAKT S473), mTORC2 activity, PC3 cells. The assay can be described thus: mTOR target engagement assay, immunofluorescent cell-based, pAKT S473 readout (mTORC2 activity). Conditions: Homo sapiens. Put shortly:
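After blocking, cells were stained overnight at 4 °C with anti-pAKT S473 antibody, then a fluorescent secondary; inhibition was read as reduced fluorescence intensity.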

The test system of assay [2] is phosphorylated 4E-BP1 Thr37/46 (p4E-BP1 Thr37/46), mTORC1 activity, PC3 cells. The assay can be described thus: mTOR target engagement assay, immunofluorescent cell-based, p4E-BP1 Thr37/46 readout (mTORC1 activity). Conditions: Homo sapiens, read-out: p4E-BP1 Thr37/46 IC50. The procedure, abridged: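 Cell-based immunofluorescence in PC3 cells: serially diluted compounds (0.25% DMSO, 5% FBS) applied for ninety minutes at 37° C before fixation and overnight 4° C staining of p4E-BP1 Thr37/46. Untreated DMSO wells set maximal phosphorylation; IC50 obtained by logistic fitting.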

Where [3] appears, read: PC-3, PC3 cells, compound treatment ninety minutes at 37° C.

Read-outs that look alike come from different tables or passages of the source.

`Nc1c(C2CC2)c([C@@H]2C[C@H]3CC[C@@H](C2)N3C(=O)CO)nc2c(-c3ccc(-c4ncc[nH]4)c(F)c3)cnn12` [Compound 6.37, 1-((1R,3s,5S)-3-(7-amino-6-cyclopropyl-3-(3-fluoro-4-(1H-imidazol-2-yl)phenyl)pyrazolo[1,5-a]pyrimidin-5-yl)-8-azabicyclo[3.2.1]octan-8-yl)-2-hydroxyethanone]: the IC50 in assay [1] (PC-3, Table 6-1, PC3 cells) lay in the range of 0.001 to 0.1 µM; in assay [2] (PC-3, Table 6-1, PC3 cells), 0.001 to 0.1 µM.
With `CC(=O)N1[C@@H]2CC[C@H]1C[C@H](c1nc3c(-c4ccc(-c5csc(C)n5)nc4)cnn3c(N)c1S(C)(=O)=O)C2` [Compound 3.200, 1-((1R,3s,5S)-3-(7-amino-6-(methylsulfonyl)-3-(6-(2-methylthiazol-4-yl)pyridin-3-yl)pyrazolo[1,5-a]pyrimidin-5-yl)-8-azabicyclo[3.2.1]octan-8-yl)ethanone], the IC50 in assay [1] (PC-3, Table 3-1, PC3 cells) lay in the range of 1 to 10 µM; in assay [2] (PC-3, Table 3-1, PC3 cells), 1 to 10 µM.
Take `Cn1ccc(-c2ccc(-c3cnn4c(N)c(S(C)(=O)=O)c([C@@H]5C[C@H]6CC[C@@H](C5)N6C(=O)c5cn[nH]n5)nc34)cn2)n1` [Compound 3.174, ((1R,3s,5S)-3-(7-amino-3-(6-(1-methyl-1H-pyrazol-3-yl)pyridin-3-yl)-6-(methylsulfonyl)pyrazolo[1,5-a]pyrimidin-5-yl)-8-azabicyclo[3.2.1]octan-8-yl)(2H-1,2,3-triazol-4-yl)methanone]: the IC50 in assay [1] (PC-3, Table 3-1, PC3 cells) lay in the range of 0.1 to 1 µM; in assay [2] (PC-3, Table 3-1, PC3 cells) it was 0.1 to 1 µM.
In the case of `Cc1[nH]nc(-c2ccc(-c3cnn4c(N)c(C5CC5)c([C@@H]5C[C@H]6CC[C@@H](C5)N6C(=O)CO)nc34)cn2)c1F` [Compound 4.20, 1-((1R,3s,5S)-3-(7-amino-6-cyclopropyl-3-(6-(4-fluoro-5-methyl-1H-pyrazol-3-yl)pyridin-3-yl)pyrazolo[1,5-a]pyrimidin-5-yl)-8-azabicyclo[3.2.1]octan-8-yl)-2-hydroxyethanone], the IC50 in assay [1] (setting [3]) and in assay [2] (setting [3]) was 0.1 to 1 µM throughout.
Take `CC(=O)c1c([C@@H]2C[C@H]3CC[C@@H](C2)N3C(=O)c2nnc[nH]2)nc2c(-c3ccc(C4(O)CCC4)nc3)cnn2c1N` [Compound 7.40, 1-(5-((1R,3s,5S)-8-(4H-1,2,4-triazole-3-carbonyl)-8-azabicyclo[3.2.1]octan-3-yl)-7-amino-3-(6-(1-hydroxycyclobutyl)pyridin-3-yl)pyrazolo[1,5-a]pyrimidin-6-yl)ethanone]: the IC50 is 0.001 to 0.1 µM in assay [1] (PC-3, Table 7-8, PC3 cells) and 0.001 to 0.1 µM in assay [2] (PC-3, Table 7-8, PC3 cells).
In the case of `CC(=O)c1c([C@@H]2C[C@H]3CC[C@@H](C2)N3C(=O)CO)nc2c(-c3ccc(C(N)(C(F)(F)F)C(F)(F)F)nc3)cnn2c1N` [Compound 7.81, 1-((1R,3s,5S)-3-(6-acetyl-7-amino-3-(6-(2-amino-1,1,1,3,3,3-hexafluoropropan-2-yl)pyridin-3-yl)pyrazolo[1,5-a]pyrimidin-5-yl)-8-azabicyclo[3.2.1]octan-8-yl)-2-hydroxyethanone], the IC50 is over 10 µM in assay [1] (PC-3, PC3 cells) and 1 to 10 µM in assay [2] (PC-3, PC3 cells).
As for `[2H]C([2H])([2H])Oc1ccc(-c2ccc(-c3ccn4c(N)c(S(C)(=O)=O)c([C@@H]5C[C@H]6CC[C@@H](C5)N6C(=O)c5nnc[nH]5)nc34)cn2)cc1` [Compound 3.62, ((1R,3s,5S)-3-(7-amino-3-(6-(4-methoxy-(D3)-phenyl)pyridin-3-yl)-6-(methylsulfonyl)pyrazolo[1,5-a]pyrimidin-5-yl)-8-azabicyclo[3.2.1]octan-8-yl)(4H-1,2,4-triazol-3-yl)methanone], the IC50 fell in the range of 0.001 to 0.1 µM in assay [1] (PC-3, Table 3-1, PC3 cells) and 0.001 to 0.1 µM in assay [2] (PC-3, Table 3-1, PC3 cells).
With `Cc1nc(N)ncc1C(=O)N1[C@@H]2CC[C@H]1C[C@H](c1nc3c(-c4ccc(-c5ccccc5)nc4)cnn3c(N)c1S(C)(=O)=O)C2` [Compound 3.137, (2-amino-4-methylpyrimidin-5-yl)((1R,3a,5S)-3-(7-amino-6-(methylsulfonyl)-3-(6-phenylpyridin-3-yl)pyrazolo[1,5-a]pyrimidin-5-yl)-8-azabicyclo[3.2.1]octan-8-yl)methanone], the IC50 in assay [1] (PC-3, Table 3-1, PC3 cells) was 1 to 10 µM; in assay [2] (PC-3, Table 3-1, PC3 cells), 1 to 10 µM.
As for `CC(=O)c1c([C@@H]2C[C@H]3CC[C@@H](C2)N3C(=O)C(C)(CO)CO)nc2c(-c3ccc(-c4ncc[nH]4)nc3)cnn2c1N` [Compound 6.46, 1-((1R,3s,5S)-3-(3-(6-(1H-imidazol-2-yl)pyridin-3-yl)-6-acetyl-7-aminopyrazolo[1,5-a]pyrimidin-5-yl)-8-azabicyclo[3.2.1]octan-8-yl)-3-hydroxy-2-(hydroxymethyl)-2-methylpropan-1-one], the IC50 in assay [1] (PC-3, Table 6-1, PC3 cells) was in the range of 0.1 to 1 µM; in assay [2] (PC-3, Table 6-1, PC3 cells) it was 0.1 to 1 µM.
For the compound `CCOc1ccc(-c2ccc(-c3cnn4c(N)c(C5CC5)c([C@@H]5C[C@H]6CC[C@@H](C5)N6C(=O)c5nnc[nH]5)nc34)cn2)cc1` [Compound 4.13, ((1R,3s,5S)-3-(7-amino-6-cyclopropyl-3-(6-(4-ethoxyphenyl)pyridin-3-yl)pyrazolo[1,5-a]pyrimidin-5-yl)-8-azabicyclo[3.2.1]octan-8-yl)(4H-1,2,4-triazol-3-yl)methanone], the IC50 in assay [1] (setting [3]) and in assay [2] (setting [3]) was 0.1 to 1 µM each time.
Turning to `CC(=O)c1c([C@@H]2C[C@H]3CC[C@@H](C2)N3C(=O)c2nnc[nH]2)nc2c(-c3ccc([C@H](C)O)cc3)cnn2c1N` [Compound 7.22, 1-(5-((1R,3s,5S)-8-(4H-1,2,4-triazole-3-carbonyl)-8-azabicyclo[3.2.1]octan-3-yl)-7-amino-3-(4-((S)-1-hydroxyethyl)phenyl)pyrazolo[1,5-a]pyrimidin-6-yl)ethanone], the IC50 in assay [1] (setting [3]) and in assay [2] (setting [3]) was 0.001 to 0.1 µM each time.
For `Cn1ccc(-c2ccc(-c3cnn4c(N)c(S(C)(=O)=O)c([C@@H]5C[C@H]6CC[C@@H](C5)N6C(=O)c5nnc[nH]5)nc34)cn2)n1` [Compound 3.40, ((1R,3s,5S)-3-(7-amino-3-(6-(1-methyl-1H-pyrazol-3-yl)pyridin-3-yl)-6-(methylsulfonyl)pyrazolo[1,5-a]pyrimidin-5-yl)-8-azabicyclo[3.2.1]octan-8-yl)(4H-1,2,4-triazol-3-yl)methanone], the IC50 in assay [1] (PC-3, Table 3-1, PC3 cells) was 0.001 to 0.1 µM; in assay [2] (PC-3, Table 3-1, PC3 cells), 0.001 to 0.1 µM.
Take `CS(=O)(=O)c1c(C2CC3COCC(C2)N3C(=O)C2(O)CC2)nc2c(-c3ccc(-c4ccccc4)nc3)cnn2c1N` (single isomer, unassigned) [Compound 8.32, (7-(7-amino-6-(methylsulfonyl)-3-(6-phenylpyridin-3-yl)pyrazolo[1,5-a]pyrimidin-5-yl)-3-oxa-9-azabicyclo[3.3.1]nonan-9-yl)(1-hydroxycyclopropyl)methanone]: the IC50 in assay [1] (PC-3, PC3 cells) is 0.001 to 0.1 µM; in assay [2] (PC-3, PC3 cells), 0.1 to 1 µM.
Take `CC(=O)c1c([C@@H]2C[C@H]3CC[C@@H](C2)N3C(=O)c2nnc[nH]2)nc2c(-c3ccc(-c4ccncc4)nc3)cnn2c1N` [Compound 1.1.76, 1-(3-(2,4′-bipyridin-5-yl)-5-((1R,3s,5S)-8-(4H-1,2,4-triazole-3-carbonyl)-8-azabicyclo[3.2.1]octan-3-yl)-7-aminopyrazolo[1,5-a]pyrimidin-6-yl)ethanone]: the IC50 in assay [1] (setting [3]) and in assay [2] (setting [3]) was 0.1 to 1 µM in each case.
On to `CC(=O)c1c([C@@H]2C[C@H]3CC[C@@H](C2)N3C(=O)c2nnc[nH]2)nc2c(-c3ccc(-c4cccnc4F)nc3)cnn2c1N` [Compound 1.1.62, 1-(5-((1R,3s,5S)-8-(4H-1,2,4-triazole-3-carbonyl)-8-azabicyclo[3.2.1]octan-3-yl)-7-amino-3-(2′-fluoro-2,3′-bipyridin-5-yl)pyrazolo[1,5-a]pyrimidin-6-yl)ethanone], for which the IC50 in assay [1] (setting [3]) and in assay [2] (setting [3]) was 0.001 to 0.1 µM throughout.
As for `CC(=O)c1c([C@@H]2C[C@H]3CC[C@@H](C2)N3C(=O)c2nnc[nH]2)nc2c(-c3ccc(-c4nn(C)cc4F)nc3)cnn2c1N` [Compound 1.1.106, 1-(5-((1R,3s,5S)-8-(4H-1,2,4-triazole-3-carbonyl)-8-azabicyclo[3.2.1]octan-3-yl)-7-amino-3-(6-(4-fluoro-1-methyl-1H-pyrazol-3-yl)pyridin-3-yl)pyrazolo[1,5-a]pyrimidin-6-yl)ethanone], the IC50 in assay [1] (setting [3]) and in assay [2] (setting [3]) was 0.001 to 0.1 µM throughout.
Turning to `CC(=O)c1c([C@@H]2C[C@H]3CC[C@@H](C2)N3C(=O)CO)nc2c(-c3ccc(-c4ccccc4)nc3)cnn2c1N` [Compound 1.1.5, 1-((1R,3s,5S)-3-(6-acetyl-7-amino-3-(6-phenylpyridin-3-yl)pyrazolo[1,5-a]pyrimidin-5-yl)-8-azabicyclo[3.2.1]octan-8-yl)-2-hydroxyethanone], the IC50 in assay [1] (setting [3]) and in assay [2] (setting [3]) was 0.001 to 0.1 µM each time.
For `COc1ccc(-c2ccc(-c3cnn4c(N)c(C(C)=O)c([C@@H]5C[C@H]6CC[C@@H](C5)N6C(=O)c5nnc[nH]5)nc34)cn2)c(F)c1` [Compound 1.1.47, 1-(5-((1R,3s,5S)-8-(4H-1,2,4-triazole-3-carbonyl)-8-azabicyclo[3.2.1]octan-3-yl)-7-amino-3-(6-(2-fluoro-4-methoxyphenyl)pyridin-3-yl)pyrazolo[1,5-a]pyrimidin-6-yl)ethanone], the IC50 in assay [1] (setting [3]) and in assay [2] (setting [3]) was 0.001 to 0.1 µM throughout.

The record behind these values is patent US9227971B2, “Pyrazolo[1,5-a]pyrimidine compounds as mTOR inhibitors” (Merck Sharp & Dohme Corp., priority 2010, dated 2016).
